The source made the active and inactive calls.
Legend:
[1] = target: Eukaryotic translation initiation factor 4E (Mus musculus, UniProt P63073); assay: eIF4E–eIF4G protein interaction inhibitors, dose response, biochemical, TR-FRET (AID 855); assay type: functional;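 also: potency for disrupting eIF4E binding to eIF4GI seen as loss of FRET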
Coagulation factor XII = target: T1, Coagulation factor XII (Homo sapiens, UniProt P00748); assay type: functional;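 also: activated factor XIIa alpha cleaving a fluorogenic AMC peptide substrate; inhibitor potency from loss of enzyme activity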
T1 sequence (P00748 whole entry): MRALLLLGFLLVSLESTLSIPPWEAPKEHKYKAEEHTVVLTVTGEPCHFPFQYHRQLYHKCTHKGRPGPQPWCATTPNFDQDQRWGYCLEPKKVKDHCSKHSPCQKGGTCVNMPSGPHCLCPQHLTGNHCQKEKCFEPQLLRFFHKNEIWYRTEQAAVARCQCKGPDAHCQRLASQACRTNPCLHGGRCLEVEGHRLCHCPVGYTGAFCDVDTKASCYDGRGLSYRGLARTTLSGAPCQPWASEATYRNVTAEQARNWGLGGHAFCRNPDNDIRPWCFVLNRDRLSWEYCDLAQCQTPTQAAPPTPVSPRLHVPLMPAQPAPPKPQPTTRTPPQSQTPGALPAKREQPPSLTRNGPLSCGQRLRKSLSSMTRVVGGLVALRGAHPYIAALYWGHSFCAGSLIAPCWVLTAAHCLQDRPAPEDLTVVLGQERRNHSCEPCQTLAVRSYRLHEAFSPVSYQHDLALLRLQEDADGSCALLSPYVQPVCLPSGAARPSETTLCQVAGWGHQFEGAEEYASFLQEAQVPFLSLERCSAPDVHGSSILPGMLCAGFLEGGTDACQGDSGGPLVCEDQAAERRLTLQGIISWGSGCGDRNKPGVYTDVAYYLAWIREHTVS

cells [2] = assay type: functional, cell-based
cells [3] = assay type: functional, cell-based; remark: listed apart in the source
Cytochrome P450 2C9 = Cytochrome P450 2C9 (Homo sapiens, UniProt P11712)
[4] = Luminescence Cell-Based Dose Response HTS to Identify Activators of Luciferase Translation or Activity in H4 […] Cells. [Related pubchem assays: 1829 (Project Summary), 1814 (Primary HTS)]; assay type: functional
[5] = Luminescence Cell-Based Dose Confirmation HTS to Identify Activators of 5'UTR Stem-Loop Driven Alpha-Synuclein mRNA Translation in H4 Neuroglioblastoma Cells. [Related pubchem assays: 1829 (Project Summary), 1814 (Primary HTS)]; assay type: functional
H4 = assay: Luminescence Cell-Based Dose Response HTS to Identify Activators of 5'UTR Stem-Loop Driven Prion Protein mRNA Translation in H4 Neuroglioblastoma Cells. [Related pubchem assays: 1829 (Project Summary), 1814 (Primary HTS)]; assay type: functional; details: Homo sapiens
CAAX prenyl protease 2 = target: T2, CAAX prenyl protease 2 (Saccharomyces cerevisiae S288c, UniProt Q03530); assay type: biochemical
T2 sequence (Q03530 whole entry): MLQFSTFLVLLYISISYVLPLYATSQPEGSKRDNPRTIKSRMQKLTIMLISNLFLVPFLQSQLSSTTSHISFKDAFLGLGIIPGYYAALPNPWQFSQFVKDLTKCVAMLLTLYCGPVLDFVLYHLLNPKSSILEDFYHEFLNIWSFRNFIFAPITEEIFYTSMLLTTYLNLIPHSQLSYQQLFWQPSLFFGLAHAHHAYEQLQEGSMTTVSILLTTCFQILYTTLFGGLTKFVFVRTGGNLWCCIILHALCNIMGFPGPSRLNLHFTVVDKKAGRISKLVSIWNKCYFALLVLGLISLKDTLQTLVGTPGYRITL

Trypsin = Trypsin (Sus scrofa, UniProt P00761); assay: porcine trypsin inhibitors, dose response, selectivity assay for Rce1 protease inhibitor project, biochemical, quenched peptide fluorescence, cherry-pick (AID 488789)
[6] = target: Peroxisome proliferator-activated receptor gamma/Nuclear receptor coactivator 2 (Homo sapiens, UniProt P37231); assay: TR-FRET dose response biochemical High Throughput Screening assay for agonists of the steroid receptor coactivator 2 (SRC-2) recruitment by the peroxisome proliferator-activated receptor gamma (PPAR gamma): non-selective agonists. [Related pubchem assays: 1297, 1032 ]; assay type: functional
[7] = target: Peroxisome proliferator-activated receptor gamma/Nuclear receptor coactivator 1 (Homo sapiens, UniProt P37231); assay: TR-FRET dose response biochemical High Throughput Screening assay for agonists of the steroid receptor coactivator 1 (SRC-1) recruitment by the peroxisome proliferator-activated receptor gamma (PPAR gamma): non-selective agonists. [Related pubchem assays (depositor defined):AID1300, AID1808, AID504735, AID631]; assay type: protein assay
[8] = target: Peroxisome proliferator-activated receptor gamma/Nuclear receptor coactivator 3 (Homo sapiens, UniProt P37231); assay: TR-FRET dose response biochemical High Throughput Screening assay for agonists of the steroid receptor coactivator 3 (SRC-3) recruitment by the peroxisome proliferator-activated receptor gamma (PPAR gamma): non-selective agonists. [Related pubchem assays: 1301 (Confirmation screen.), 1048 (Primary screen.)]; assay type: functional
[9] = target: T3, Heat shock factor protein 1 (Mus musculus, UniProt P38532); assay: HSF1 potentiators in luciferase reporter cells, confirmation, cell-based, NIH3T3, luminescence, dose retest (AID 435004); assay type: functional;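 also: stress induced by proteasome inhibitor MG132 added 30 min after compound; luciferase reporter driven by HSF1 response element in NIH3T3 cells; actives raise luminescence as potentiators of the MG132 stress response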
T3 sequence (P38532 whole entry): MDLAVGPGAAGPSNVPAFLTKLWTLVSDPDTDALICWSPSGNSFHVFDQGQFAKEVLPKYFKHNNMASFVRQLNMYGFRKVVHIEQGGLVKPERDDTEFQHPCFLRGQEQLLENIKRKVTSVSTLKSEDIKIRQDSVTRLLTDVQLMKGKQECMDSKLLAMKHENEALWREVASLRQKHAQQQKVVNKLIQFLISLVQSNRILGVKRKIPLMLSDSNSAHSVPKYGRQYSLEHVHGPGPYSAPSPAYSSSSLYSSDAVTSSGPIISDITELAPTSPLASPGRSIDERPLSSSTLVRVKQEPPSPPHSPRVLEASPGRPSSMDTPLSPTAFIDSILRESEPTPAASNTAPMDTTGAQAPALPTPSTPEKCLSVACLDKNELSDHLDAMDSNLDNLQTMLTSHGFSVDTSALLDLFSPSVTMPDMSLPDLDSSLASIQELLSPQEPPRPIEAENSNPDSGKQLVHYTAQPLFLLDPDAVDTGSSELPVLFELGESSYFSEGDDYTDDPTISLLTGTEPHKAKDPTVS

Cytochrome P450 3A4 = Cytochrome P450 3A4 (Homo sapiens, UniProt P08684);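 also: CYP3A4 tested as one member of a cytochrome P450 panel screen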
Cytochrome P450 2C19 = Cytochrome P450 2C19 (Homo sapiens, UniProt P33261); assay: Cytochrome panel assay with activity outcomes. Panel member name: p450-cyp2c19 Compounds with AC50 equal or less than 10 uM are considered active; assay type: functional; details: read-out: AC50
[10] = target: T4, High affinity choline transporter 1 (Homo sapiens, UniProt Q9GZV3); assay: CHT inhibitors, dose response, cell-based, 5-point CRC, membrane potential dye (AID 504840); assay type: functional
T4 sequence (Q9GZV3 whole entry): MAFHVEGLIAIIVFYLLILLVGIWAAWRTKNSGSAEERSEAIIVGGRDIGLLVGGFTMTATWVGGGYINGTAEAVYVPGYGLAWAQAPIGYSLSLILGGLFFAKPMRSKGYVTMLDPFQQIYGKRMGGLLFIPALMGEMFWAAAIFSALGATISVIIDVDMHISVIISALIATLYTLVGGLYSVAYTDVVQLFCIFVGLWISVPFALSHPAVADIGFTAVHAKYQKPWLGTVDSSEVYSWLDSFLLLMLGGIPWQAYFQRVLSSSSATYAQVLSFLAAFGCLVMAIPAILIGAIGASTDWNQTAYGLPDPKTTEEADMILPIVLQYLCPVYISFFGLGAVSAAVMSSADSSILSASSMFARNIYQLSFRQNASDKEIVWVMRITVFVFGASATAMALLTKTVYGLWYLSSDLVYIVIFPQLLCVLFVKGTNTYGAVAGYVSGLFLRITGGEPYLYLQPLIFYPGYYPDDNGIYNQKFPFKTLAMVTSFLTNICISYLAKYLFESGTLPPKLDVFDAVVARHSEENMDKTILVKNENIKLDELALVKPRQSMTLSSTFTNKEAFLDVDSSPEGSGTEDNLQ

HEK293 [11] = assay: NOD1 signaling inhibitors, primary screen, cell-based, luminescence, uHTS (AID 1578); assay type: functional; details: Homo sapiens
HEK293 [12] = assay: cells; assay type: functional, cell-based; details: Homo sapiens
HEK293 [13] = assay: cells; assay type: functional, cell-based; details: Homo sapiens; remark: listed apart in the source
HEK293 [14] = assay: NOD2 signaling inhibitors in MDP-stimulated cells, cell-based, uHTS, luminescence (AID 2001); assay type: functional; details: Homo sapiens
[15] = target: T5, Carboxy-terminal domain RNA polymerase II polypeptide A small phosphatase 1 (Homo sapiens, UniProt Q9GZU7); assay: inhibitors of CTDSP1, concentration-response testing, biochemical assay, absorbance-based, actives from ultra-high-throughput screening (AID 540297); assay type: functional
T5 sequence (Q9GZU7 whole entry): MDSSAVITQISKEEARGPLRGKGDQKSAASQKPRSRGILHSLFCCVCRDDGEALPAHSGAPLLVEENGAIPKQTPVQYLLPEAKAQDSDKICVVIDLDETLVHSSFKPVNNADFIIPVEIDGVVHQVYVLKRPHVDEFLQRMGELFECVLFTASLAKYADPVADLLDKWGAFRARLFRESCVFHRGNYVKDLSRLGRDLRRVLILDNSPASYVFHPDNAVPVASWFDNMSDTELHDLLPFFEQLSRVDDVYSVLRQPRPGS

[16] = target: DNA dC->dU-editing enzyme APOBEC-3G (Homo sapiens, UniProt Q9HC16); assay: Dose Response confirmation of small molecule APOBEC3G DNA Deaminase Inhibitors via a fluorescence-based single-stranded DNA deaminase assay. [Related pubchem assays (depositor defined):AID493012, AID493028]; assay type: functional

Eukaryotic translation initiation factor 4E, sequence (P63073 whole entry): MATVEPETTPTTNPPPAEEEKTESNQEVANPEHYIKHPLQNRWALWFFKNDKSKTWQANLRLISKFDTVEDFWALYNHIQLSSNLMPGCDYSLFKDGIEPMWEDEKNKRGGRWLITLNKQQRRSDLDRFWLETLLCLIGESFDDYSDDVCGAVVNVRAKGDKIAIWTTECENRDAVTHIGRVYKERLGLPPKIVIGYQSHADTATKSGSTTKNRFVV
Cytochrome P450 2C9, sequence (P11712 whole entry): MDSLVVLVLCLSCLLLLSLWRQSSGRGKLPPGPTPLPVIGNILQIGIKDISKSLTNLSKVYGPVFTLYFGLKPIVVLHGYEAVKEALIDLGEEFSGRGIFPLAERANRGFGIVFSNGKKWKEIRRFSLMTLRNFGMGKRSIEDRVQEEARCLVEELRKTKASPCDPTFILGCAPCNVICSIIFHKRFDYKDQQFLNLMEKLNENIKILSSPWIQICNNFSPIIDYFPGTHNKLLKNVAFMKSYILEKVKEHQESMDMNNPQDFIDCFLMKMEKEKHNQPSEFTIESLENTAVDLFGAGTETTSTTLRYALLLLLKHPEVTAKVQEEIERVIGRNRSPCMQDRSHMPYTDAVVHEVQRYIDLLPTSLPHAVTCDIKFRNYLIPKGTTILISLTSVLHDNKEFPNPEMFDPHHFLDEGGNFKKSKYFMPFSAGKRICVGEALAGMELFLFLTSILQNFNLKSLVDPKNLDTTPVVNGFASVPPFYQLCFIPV
Peroxisome proliferator-activated receptor gamma/Nuclear receptor coactivator 2, sequence (P37231 whole entry): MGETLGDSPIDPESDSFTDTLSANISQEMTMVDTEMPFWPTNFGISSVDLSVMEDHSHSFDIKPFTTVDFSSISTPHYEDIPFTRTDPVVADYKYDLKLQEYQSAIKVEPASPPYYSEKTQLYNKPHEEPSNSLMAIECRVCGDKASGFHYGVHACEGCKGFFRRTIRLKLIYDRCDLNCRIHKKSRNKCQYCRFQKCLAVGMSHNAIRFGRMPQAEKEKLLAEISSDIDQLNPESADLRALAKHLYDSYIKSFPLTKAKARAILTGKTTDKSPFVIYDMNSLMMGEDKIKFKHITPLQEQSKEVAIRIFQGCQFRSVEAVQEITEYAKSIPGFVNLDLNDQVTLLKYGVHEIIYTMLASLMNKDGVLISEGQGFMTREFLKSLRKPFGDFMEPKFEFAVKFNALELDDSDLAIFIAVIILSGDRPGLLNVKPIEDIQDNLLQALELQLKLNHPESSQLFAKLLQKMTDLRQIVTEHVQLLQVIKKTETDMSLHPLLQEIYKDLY
Peroxisome proliferator-activated receptor gamma/Nuclear receptor coactivator 2, sequence (Q15596 whole entry, further chain): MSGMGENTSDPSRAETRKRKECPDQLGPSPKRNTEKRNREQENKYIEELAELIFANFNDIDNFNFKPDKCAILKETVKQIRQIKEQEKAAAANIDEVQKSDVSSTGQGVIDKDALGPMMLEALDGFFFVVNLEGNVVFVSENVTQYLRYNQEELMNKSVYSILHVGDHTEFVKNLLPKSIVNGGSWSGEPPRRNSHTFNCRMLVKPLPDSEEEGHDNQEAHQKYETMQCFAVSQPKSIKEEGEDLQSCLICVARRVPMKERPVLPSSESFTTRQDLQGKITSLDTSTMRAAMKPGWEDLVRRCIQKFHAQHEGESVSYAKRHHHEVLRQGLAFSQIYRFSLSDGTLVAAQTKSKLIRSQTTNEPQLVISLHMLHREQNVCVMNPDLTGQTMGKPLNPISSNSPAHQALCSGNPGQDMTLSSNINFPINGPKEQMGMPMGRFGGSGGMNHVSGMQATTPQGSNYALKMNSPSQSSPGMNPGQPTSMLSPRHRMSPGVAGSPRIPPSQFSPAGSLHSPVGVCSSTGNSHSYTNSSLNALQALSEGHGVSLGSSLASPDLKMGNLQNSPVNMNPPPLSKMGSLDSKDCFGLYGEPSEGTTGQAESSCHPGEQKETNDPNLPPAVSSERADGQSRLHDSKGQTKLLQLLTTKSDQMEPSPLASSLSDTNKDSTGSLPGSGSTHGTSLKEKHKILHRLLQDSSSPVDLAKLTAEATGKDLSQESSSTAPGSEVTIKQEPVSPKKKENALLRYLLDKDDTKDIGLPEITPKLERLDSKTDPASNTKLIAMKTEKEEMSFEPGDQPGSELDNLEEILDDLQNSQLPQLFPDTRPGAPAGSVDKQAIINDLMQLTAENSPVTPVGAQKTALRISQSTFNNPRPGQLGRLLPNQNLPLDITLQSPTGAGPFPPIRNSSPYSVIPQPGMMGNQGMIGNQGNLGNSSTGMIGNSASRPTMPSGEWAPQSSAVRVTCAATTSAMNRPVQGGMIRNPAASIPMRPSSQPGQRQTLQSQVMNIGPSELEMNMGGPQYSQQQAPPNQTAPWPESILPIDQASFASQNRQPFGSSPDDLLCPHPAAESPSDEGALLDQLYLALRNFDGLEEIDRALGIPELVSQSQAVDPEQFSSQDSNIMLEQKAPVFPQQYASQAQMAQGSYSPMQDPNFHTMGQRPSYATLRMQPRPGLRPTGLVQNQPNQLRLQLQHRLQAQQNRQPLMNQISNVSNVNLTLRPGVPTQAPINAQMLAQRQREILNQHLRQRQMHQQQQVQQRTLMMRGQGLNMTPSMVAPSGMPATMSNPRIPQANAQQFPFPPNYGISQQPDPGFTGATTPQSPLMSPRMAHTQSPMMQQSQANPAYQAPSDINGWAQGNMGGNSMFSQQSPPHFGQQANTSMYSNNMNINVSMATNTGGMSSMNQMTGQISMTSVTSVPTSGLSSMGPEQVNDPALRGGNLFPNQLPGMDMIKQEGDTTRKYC
Peroxisome proliferator-activated receptor gamma/Nuclear receptor coactivator 1, sequence (P37231 whole entry): as the sequence (P37231 whole entry) above
Peroxisome proliferator-activated receptor gamma/Nuclear receptor coactivator 1, sequence (Q15788 whole entry, further chain): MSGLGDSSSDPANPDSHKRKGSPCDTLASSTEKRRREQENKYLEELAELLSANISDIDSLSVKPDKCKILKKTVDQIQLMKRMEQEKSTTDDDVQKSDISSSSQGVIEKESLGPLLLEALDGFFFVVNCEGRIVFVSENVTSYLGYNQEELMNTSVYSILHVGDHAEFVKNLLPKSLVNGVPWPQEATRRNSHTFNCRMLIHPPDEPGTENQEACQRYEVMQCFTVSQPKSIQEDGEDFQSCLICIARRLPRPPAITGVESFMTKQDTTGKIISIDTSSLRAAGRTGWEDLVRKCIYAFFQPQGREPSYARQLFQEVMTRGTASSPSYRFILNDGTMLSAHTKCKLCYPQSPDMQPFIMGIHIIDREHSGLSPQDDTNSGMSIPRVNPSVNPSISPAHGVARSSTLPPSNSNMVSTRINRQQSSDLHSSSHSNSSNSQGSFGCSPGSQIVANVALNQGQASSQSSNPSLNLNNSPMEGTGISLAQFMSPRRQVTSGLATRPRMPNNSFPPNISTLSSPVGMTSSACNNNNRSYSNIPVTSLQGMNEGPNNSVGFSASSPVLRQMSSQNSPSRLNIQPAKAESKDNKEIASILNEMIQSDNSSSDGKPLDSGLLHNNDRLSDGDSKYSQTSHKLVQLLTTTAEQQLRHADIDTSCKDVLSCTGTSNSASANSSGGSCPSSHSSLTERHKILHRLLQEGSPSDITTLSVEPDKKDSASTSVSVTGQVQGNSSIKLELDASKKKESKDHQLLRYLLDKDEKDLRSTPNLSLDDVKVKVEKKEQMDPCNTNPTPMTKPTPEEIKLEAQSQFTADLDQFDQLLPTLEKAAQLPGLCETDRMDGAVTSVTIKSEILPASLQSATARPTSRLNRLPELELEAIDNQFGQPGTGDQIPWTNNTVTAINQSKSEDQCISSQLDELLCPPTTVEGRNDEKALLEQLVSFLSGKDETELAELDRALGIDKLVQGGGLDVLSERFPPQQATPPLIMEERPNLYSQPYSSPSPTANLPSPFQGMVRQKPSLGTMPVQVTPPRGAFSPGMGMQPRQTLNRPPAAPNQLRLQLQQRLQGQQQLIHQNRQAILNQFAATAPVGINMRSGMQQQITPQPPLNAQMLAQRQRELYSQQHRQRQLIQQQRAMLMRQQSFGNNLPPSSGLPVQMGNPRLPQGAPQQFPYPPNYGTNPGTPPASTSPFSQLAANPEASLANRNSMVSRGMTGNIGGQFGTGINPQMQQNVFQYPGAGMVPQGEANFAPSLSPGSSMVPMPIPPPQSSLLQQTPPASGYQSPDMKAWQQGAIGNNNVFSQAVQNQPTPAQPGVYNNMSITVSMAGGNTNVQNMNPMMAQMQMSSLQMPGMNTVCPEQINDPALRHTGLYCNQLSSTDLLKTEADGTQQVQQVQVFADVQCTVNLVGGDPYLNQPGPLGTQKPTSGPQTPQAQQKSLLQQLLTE
Trypsin, sequence (P00761 whole entry): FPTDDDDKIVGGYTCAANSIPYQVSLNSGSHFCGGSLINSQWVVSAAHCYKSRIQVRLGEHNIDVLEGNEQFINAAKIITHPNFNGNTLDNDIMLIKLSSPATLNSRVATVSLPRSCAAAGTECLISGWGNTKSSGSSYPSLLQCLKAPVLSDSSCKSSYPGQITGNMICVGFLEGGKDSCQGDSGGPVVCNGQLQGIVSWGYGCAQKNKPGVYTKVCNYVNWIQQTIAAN

Compound: CC(C)c1ccc(C(=O)NCc2ccc(Cl)cc2)cc1
- IC50 [1]: > 64 µM (inactive)

Compound: Cn1c(NCCc2ccccc2)cc(=O)n(C)c1=O
- IC50 (Coagulation factor XII): > 50 µM (inactive)
- IC50 (cells [2]): > 29.9 µM (inactive)
- EC50 (cells [3]): > 29.9 µM (inactive)

Compound: CC(=O)NCCNc1nc(-c2ccccc2C)nc2ccccc12
- AC50 (Cytochrome P450 2C9): inconclusive

Compound: O=C(CCS(=O)(=O)c1cccs1)N1CCCC1
- EC50 [4]: > 120 µM (not active)
- IC50 [1]: > 64 µM (inactive)
- EC50 [5]: > 120 µM (not active)
- EC50 (H4): 17.8 µM (active)

Compound: CCc1cc(=O)oc2c3c(cc(OCC(=O)NCCCC(=O)O)c12)OC(C)(C)CC3
- AC50 (CAAX prenyl protease 2): 12.1 µM (active)
- AC50 (Trypsin): 7.16 µM (active)

Compound: NC(=O)CSc1oc(-c2cccs2)nc1S(=O)(=O)c1ccccc1
- EC50 [6]: 10.8 µM (not active)
- EC50 [7]: 10.9 µM (inactive)
- EC50 [8]: > 79.4 µM (not active)

Compound: Cc1ccc(/C=N/NC(=O)c2nnn(-c3nonc3N)c2C(C)C)o1
- AC50 (CAAX prenyl protease 2): 2.96 µM (active)

Compound: CCOC(=O)N1CCC(NS(=O)(=O)c2ccc3c(c2)C(C)(C)C(=O)N3C)CC1
- EC50 [9]: > 260 µM (inactive)
- AC50 (Cytochrome P450 2C9): inconclusive
- AC50 (Cytochrome P450 3A4): 15.8 µM (inconclusive)
- AC50 (Cytochrome P450 2C19): 11.2 µM (inconclusive)

Compound: COc1cc(/C=N/NC(=O)C2c3ccccc3Oc3ccccc32)ccc1O
- IC50 [1]: > 64 µM (inactive)

Compound: COc1ccc(-c2nc(-c3cccs3)c(-c3cccs3)[nH]2)cc1O
- EC50 [6]: 4.79 µM (active)
- IC50 [10]: 20 µM (active)
- EC50 [7]: 4.8 µM (active)
- EC50 [8]: 79.6 µM (not active)

Compound: COc1ccc(-c2c(-c3ccsc3)oc3ccc(N4CCOCC4)cc23)cn1
- AC50 (Trypsin): 9.22 µM (active)

Compound: Cc1ccc(C(=O)c2cnc3cc4c(cc3c2S(=O)(=O)c2ccccc2)OCCO4)cc1
- EC50 [4]: 9.9 µM (active)
- EC50 (HEK293 [11]): > 20 µM (inactive)
- IC50 (HEK293 [12]): 14.7 µM (active)
- EC50 [5]: 6.76 µM (active)
- EC50 (H4): 7.93 µM (active)
- IC50 (HEK293 [13]): > 20 µM (inactive)
- IC50 (HEK293 [14]): 12.9 µM (inactive)

Compound: COC(=O)c1[nH]c(C)c(C(=O)C2=C(O)C(=O)N(CCN(C)C)C2c2cccc(OC)c2OC)c1C (centres undefined)
- IC50 (Coagulation factor XII): > 50 µM (inactive)

Compound: O=C(Nc1cccnc1)c1sc(Nc2ccccc2F)nc1-c1ccccc1
- EC50 [6]: 6.83 µM (active)
- EC50 [7]: 6.48 µM (active)
- EC50 [8]: 28.3 µM (not active)

Compound: O=C(NNC(=O)c1cc2cc3ccccc3nc2s1)c1cccc(C(F)(F)F)c1
- IC50 [15]: 5.86 µM (active)
- AC50 (Cytochrome P450 2C9): inconclusive
- AC50 (Cytochrome P450 3A4): 1.26 µM (inconclusive)

Compound: Cc1ccc(C)c(-n2nc3c4c(ccc3c2O)C(=O)c2ccccc2C4=O)c1
- EC50 (HEK293 [11]): 11.1 µM (active)
- IC50 (HEK293 [12]): > 20 µM (inactive)
- IC50 (HEK293 [13]): > 20 µM (inactive)
- IC50 (HEK293 [14]): 18 µM (inactive)

Compound: COc1ccccc1NS(=O)(=O)c1cc(N)ccc1N1CCCCC1
- IC50 [16]: 72.5 µM (active)

Reference: ChEMBL document CHEMBL1201862, “PubChem BioAssay data set” (2004)
